The source of these data is US20240041911A1, “USE OF CLADRIBINE FOR TREATING IMMUNE BRAIN DISEASE” (CHORD THERAPEUTICS SA, priority 2020, published 2024).

The conditions of experiment [1]: multiple sclerosis patients; cited from earlier work.
Experiment [2] can be described thus: Treatment of a person suffering from autoimmune-mediated limbic encephalitis (single-patient case, anti-NMDAR encephalitis).

Each structure is given as a SMILES string.

Take `Nc1nc(Cl)nc2c1ncn2[C@H]1C[C@H](O)[C@@H](CO)O1` [cladribine, 2-chloro-2′-deoxyadenosine]: in experiment [1], the “time at which therapeutic effect on MS is evident” value is “three months after treatment”. In experiment [2] (after a relatively short period of treatment), the “period of beneficial effects on the disease without need for frequent retreatment” value was “over 10 months to two years”. Further, in experiment [2] (after recovery following cladribine, able to perform all usual activities), the “disability reported by patient” value is “no significant disability”. For the same molecule, the recurrence of disease result in experiment [2] (follow up of 2 years, 5 more maintenance courses (20 mg over 2 consecutive days) with 2 months intervals) is given as “did not show any recurrence of disease”. In experiment [2] (over subsequent 4 weeks after the first 3 weeks following cladribine), the neurological condition entry was “returned to normal neurological condition”. Also, the “onset of effect on severe symptoms” value in experiment [2] (patient with refractory autoimmune encephalitis) is “rapid effect”. In experiment [2] (remaining after recovery following cladribine), the neurological sequel entry is “parasomnia and complete loss of memory covering the entire hospitalization period”.

Take `NC(=O)N1c2ccccc2C=Cc2ccccc21` [carbamazepine]: the “response of generalized tonic-clonic repetitive seizures to anticonvulsants” value (shortened to “response”) in experiment [2] (before cladribine) is reported as “did not respond”.

As to `O=C(CCCN1CCC(O)(c2ccc(Cl)cc2)CC1)c1ccc(F)cc1` [haloperidol], the “psychiatric condition under standard antipsychotic treatment” value in experiment [2] (during entire stay in the psychiatric ward, before cladribine) is given as “without any improvement”.

For `CCCC(CCC)C(=O)[O-].[Na+]` [sodium valproate], the “response” value in experiment [2] (before cladribine) is on record as “did not respond”.

In the case of `O=C1CN=C(c2ccccc2Cl)c2cc([N+](=O)[O-])ccc2N1` [clonazepam], in experiment [2] (before cladribine), the “response” value was “did not respond”.

Turning to `O=C1NC(=O)C(c2ccccc2)(c2ccccc2)N1` [phenytoin], the “response” value in experiment [2] (before cladribine) is reported as “did not respond”.
